# Patent US20250009716A1, “NOVEL INHIBITORS OF CLAUDIN-1 FOR THERAPEUTIC INTERVENTIONS” (BOARD OF REGENTS OF THE UNIVERSITY OF NEBRASKA, priority 2021, published 2025)
# Entries after “also recorded” stand apart in the source; their conditions may differ.
# Columns and labels:
# [1] = Cell survival assay of three inhibitors (FIG. 2B); type: cell-based
# Protocol: (A) In-silico 3D-structure of claudin-1, cavities that can be targeted by small molecules were defined using Molegro Virtual Docker. (B) Cell survival assay showing effects of three different inhibitors (I1, I2 and 16). […] (C) Effect of 16 treatment (72 hours) upon resistance to anoikis in claudin-1 overexpressing SW480 cells and claudin-1 deficient HCT116 cells. (D) Effect of 16 treatment on cell invasion in SW480claudin-1 cells. (E) Effect of inhibitor 16 on xenograft tumors. Tumors were induced for two weeks after which 16 was injected i.p (10 mg/kg). Effect on tumor growth was monitored.
# [2] = system: claudin-1 overexpressing cells; experiment: Co-treatment with 5FU, inhibition of cell growth; type: cell-based; settings: 16 in combination with 5-FU
# Excerpt: Curve fitting analysis was done using four parametric logistic regression curve.
# The CSC cells contribute to the generation of metastasis (16-19), and key CSC characteristics are highly relevant to metastasis, including invasive motility, and, resistance to apoptosis (20,21). […] Considering that chemoresistance is central to the CRC progression and metastasis, we further tested if adjuvant use of 16 with 5FU can have significant bearing upon these traits. Colon cancer cells were subjected to exogenous administration of 16 alone, or in combination with the 5-FU, the conventional anti-CRC drug. […] To further determine the mechanistic details the effect of 16 on association of claudin-1 and Src, SW480claudin-1 cells were treated with 16 or the vehicle and resultant cell lysate was subjected to Proximity ligation assay (PLA) or Co—IP.
# [3] = Pharmacokinetics after single i.v. dose; type: in vivo, mice
# Protocol: (§1) To determine the in vivo characteristics of this drug, a pharmacokinetic and tissue distribution study on 16 was performed. Following a single i.v. dose of 16 (1 mg/kg) in mice (C57B/16; n=5), serial blood samples were obtained at 0.08, 0.25, 0.75, 2, 4, 6, 8 and 24 hours after the injection and plasma samples were analyzed for 16 concentrations. Pharmacokinetic parameter values were obtained from the plasma concentration-time data using standard non-compartmental methods (WinNonlin, PharSight Corp). […] To assess the tissue distribution of 16, mice were sacrificed at 2, 8 and 24 hours after the i.v. administration of the drug. Measurable concentrations of 16 were detected in all studied tissues at 2, 8, and 24 h. […] Next, metabolic stability studies of 16 was evaluated using mouse liver S9 fractions for the in vitro assessment of phase I and II metabolism. […] Testosterone, 7-HC and diclofenac were used as positive controls, ensuring proper incubation conditions were maintained. […] The results of these in vitro drug metabolism studies guided the rational development of 16 structural analogs.
# Pharmacokinetic parameter values were estimated from the plasma concentration-time data using standard noncompartmental methods and software (WinNonlin, PharSight Corp). […] Terminal elimination half-life (t1/2) was calculated by dividing 0.693 by terminal elimination rate constant Iz. Drug clearance (Cl) was calculated using standard equations. Area under the plasma concentration-time curve from 0 to 24 hours (AUCO-24) was calculated with the linear-log trapezoidal rule. The area under the plasma concentration-time curve from 0 to infinity (AUCO-infinity) was calculated as AUCO-24+C24/Iz. The absolute bioavailability (F) was calculated as the ratio between the AUCO-infinity from oral and intravenous routes using standard equations (FIG. 39).
# [4] = Tissue distribution after i.v. dose; type: in vivo, mice
# Protocol: as §1
# Eight-week-old healthy Balb/c mice (male and female) mice were utilized for the pharmacokinetic and biodistribution studies. In this section, up to two different administration routes (oral or IP) were evaluated for each selected drug product. The specified drug and dose were administered to a 25 g mouse. A total of 36 mice were used for each compound tested. Blood was collected by cheek bleeding at selected times between 0-168 h post-injection. Liver, spleen, kidney, brain and bone marrow were harvested at terminal time points (2, 8, 24, 48, 72 h). Tissue samples were collected and processed for bioanalysis. The drug concentration in blood and tissues was measured by LC-MS/MS using methods developed during preliminary studies and validated according to FDA guidance. Drug accumulation in tissue was assessed by calculating a tissue to plasma concentration ratio (Kp), an indicator of drug accumulation (FIGS. 6A, 6B, 7, and 38).
smiles,measurement,setting,value
COc1cc2ccccc2cc1C(=O)NC(=S)Nc1ccc(-c2nc3ccccc3[nH]2)cc1 [Compound 16],"effect on cell survival, compared among I1, I2 and 16",[1],most effective
same,combination effect with 5FU,[2],significant synergy; also recorded: synergistic effect in inhibition of cell growth
same,clearance,[3]; 1 mg/kg i.v.,13 mL/min/kg
same,time up to which detectable in plasma,[3]; 1 mg/kg i.v.,up to 24 hrs
same,peak concentration,"[3]; 1 mg/kg i.v., plasma",798 ng/mL
same,mouse behavior or weight,[3]; 24 hours after single i.v. injection,no change in mouse behavior or weight
same,AUC,"[3]; C57B/16, mouse, iv, 1 mg/kg i.v., plasma",1210 ng·h/mL
same,half-life,"[3]; C57B/16, mouse, plasma, iv, 1 mg/kg i.v., read-out: elimination t1/2 (converted)",7 h
same,Vd,"[3]; C57B/16, mouse, plasma, iv, 1 mg/kg i.v., read-out: volume of distribution",8.4 L/kg
same,descending order of Kp ratios,[4]; 1 mg/kg i.v.,lungs>liver>spleen>kidney>heart>>brain
same,tissue concentrations,"[4]; 2, 8 and 24 h after 1 mg/kg i.v.",higher concentrations in the lung and liver tissue
same,Kp,"[4]; C57B/16, mouse, iv, all tissues except brain, 1 mg/kg i.v., read-out: tissue to plasma concentration ratio (Kp)",≥ 1
